Experimental data reported in patent US5011833A, “Novel derivatives of 6,11-dihydro-dibenzo(C,F)(1,2,5)-thiadiazepine 5,5-dioxide, salts thereof and appropriate processes for the preparation thereof” (A. Menarini Industrie Farmaceutiche Riunite, priority 1988, dated 1991).
Like-named read-outs stand apart in the source and are kept apart here.

How the values were obtained:
[1] = tested on: blood pressure; conditions: in vivo
[2] = tested on: convulsions; conditions: in vivo
[3] = tested on: duodenal ulcers; experiment: effect on duodenal ulcers; conditions: in vivo
[4] = tested on: cardio-toxic; conditions: in vivo
[5] = tested on: hypothermia induced by apomorphine; experiment: inhibition of hypothermia induced by apomorphine (apomorphine test); conditions: Mus musculus, po, 1 h, read-out: Hypothermia inhibition from Apo16: ED-50
[6] = acute oral toxicity (LD-50); conditions: mouse, in vivo
[7] = tested on: motor activity; conditions: in vivo
[8] = tested on: anticholinergic effect; conditions: in vivo
[9] = Swiss male mice, after 14 days, read-out: LD-50

| Compound | ED50 [5] | LD50 at 336 h [6, 9] | other results |
| --- | --- | --- | --- |
| CN(C)CC(=O)N1c2ccccc2N(C)S(=O)(=O)c2ccccc21 [Compound 1, 6-Methyl-6,11-dihydro-11-(N,N-dimethylaminoacetyl)dibenzo[c,f][1,2,5]thiadiazepine 5,5-dioxide] | 4 to 15 mg/kg | 1500 to 2000 mg/kg | blood pressure [1]: does not alter the blood pressure; convulsions [2]: does not induce convulsions; duodenal ulcers [3]: reduces duodenal ulcers; cardio-toxicity [4]: is not cardio-toxic; LD50 at 336 h ([6]; mice, read-out: oral LD-50): 1920 mg/kg; motor activity [7]: does not alter the motor activity; anticholinergic effect [8]: induces very weak anticholinergic effects |
| CNCC(=O)N1c2ccccc2N(C)S(=O)(=O)c2ccccc21 [Compound 2] | 4 to 15 mg/kg | 750 to 1000 mg/kg | – |
| CCN(CC)CC(=O)N1c2ccccc2N(C)S(=O)(=O)c2ccccc21 [Compound 3, 6-Methyl-6,11-dihydro-11-(N,N-diethylamino-acetyl)dibenzo[c,f][1,2,5]thiadiazepine 5,5-dioxide] | 15 to 25 mg/kg | > 2000 mg/kg | – |
| CN(C)CCC(=O)N1c2ccccc2N(C)S(=O)(=O)c2ccccc21.Cl [Compound 4, 6-Methyl-6,11-dihydro-11-[3-(N,N-dimethylamino)propionyl]dibenzo[c,f][1,2,5]thiadiazepine 5,5-dioxide hydrochloride] | 15 to 25 mg/kg | 500 to 700 mg/kg | – |
| CN(C)CC(=O)N1c2ccc(Cl)cc2N(C)S(=O)(=O)c2ccccc21 [Compound 5, 8-chloro-6-methyl-6,11-dihydro-11-(N,N-dimethylamino-acethyl)-dibenzo[c,f][1,2,5]thiadiazepine 5,5-dioxide] | 15 to 25 mg/kg | 1000 to 1500 mg/kg | – |
| Cc1ccc2c(c1)N(C(=O)CN(C)C)c1ccccc1S(=O)(=O)N2C [Compound 6, 6,9-dimethyl-6,11-dihydro-11-(N,N-dimethylaminoacetyl)-dibenzo[c,f][1,2,5]thiadiazepine 5,5-dioxide] | 4 to 15 mg/kg | 1500 to 2000 mg/kg | – |
| CN(C)CCCN1c2ccccc2CCc2ccccc21 [imipramine, reference compound] | 4 to 15 mg/kg | – | – |
| CN(C)CCCN1c2ccccc2N(C)S(=O)(=O)c2ccccc21 [reference compound] | – | – | blood pressure [1]: increases the blood pressure; convulsions [2]: induces convulsions; LD50 at 336 h ([6]; mice, read-out: oral LD-50): 655 mg/kg; motor activity [7]: increases the motor activity; anticholinergic effect [8]: possesses anticholinergic effect |
